{
  "source": "patent US8507656B2",
  "about": "“Stabilized angiopoietin-2 antibodies and uses thereof” (MedImmune Limited, priority 2008, dated 2013)",
  "molecules": {"B1": {"name": "MEDI1/5 IgG1: heavy and light chains SEQ ID Nos. 7 and 3 in IgG1 format (antibody)", "VH": "QVQLVESGGGVVQPGRSLRLSCAASGFTFTNYGMHWVRQAPGKGLEWVAVISHDGNNKYYVDSVKGRFTISRDNSKNTLYLQMNSLRAEDTAVYYCAREGIDFWSGLNWFDPWGQGTLVTVSS", "light": "EIVLTQSPGTLSLSPGERATLSCRASQSITGSYLAWYQQKPGQAPRLLITGASSWATGIPDRFSGSGSGTDFTLTISRLEPEDFAVYYCQQYSSSPITFGQGTRLEIKRTVAAPSVFIFPPSDEQLKSGTASVVCLLNNFYPREAKVQWKVDNALQSGNSQESVTEQDSKDSTYSLSSTLTLSKADYEKHKVYACEVTHQGLSSPVTKSFNRGEC", "modifications": "IgG1 format"}, "B2": {"name": "MEDI1/5 IgG2: heavy and light chains SEQ ID Nos. 7 and 3 in IgG2 format (antibody)", "VH": "B1 VH", "light": "B1 light", "modifications": "IgG2 format"}},
  "key": {"LoVo xenograft tumors": {"tested_on": "LoVo xenograft tumors", "type": "in vivo", "conditions": "3.19.3 10 mg/kg 2×wk i.p., 5FU 100 mg/kg/week i.p., combination of both", "description": "The anti-tumor activity of 3.19.3 was evaluated in combination with 5-Fluoruracil (5FU) in the LoVo xenograft model of colorectal cancer. LoVo cells were cultured in flasks as routine until the cells reached sub-confluence. Cell suspensions containing approximately 3×10E6 cells were injected subcutaneously into the flank of female Swiss nude mice. When the tumor volume reached 200 mm^3, the mice were randomized in treatment groups of 8-10 mice and the treatments were initiated. 3.19.3 (10 mg/kg) in saline was injected intraperitoneally, twice per week for 2 weeks and 5-Flurouracil (100 mg/kg) was administered by intraperitoneal administration following a weekly schedule. The dimensions of each tumor and body weights were measured at least twice per week. The volume of the tumor was calculated as: Volume=Length×(Width)×0.5 (cm^3)."}, "[1]": {"tested_on": "collagen-induced arthritis", "test": "Collagen-induced arthritis (CIA), dose response (Example 11)", "type": "in vivo, male DBA/1 mice"}, "[2]": {"tested_on": "collagen induced arthritis"}, "[3]": {"test": "Stability study: rate of aggregation of antibody formulations", "type": "physicochemical", "conditions": "10 mg/ml in 10 mM histidine pH 6.0, two weeks", "description": "Samples of the aforementioned formulations were incubated at either 25° C. or 40° C. for two weeks. As a measure of stability, the rate of aggregation (% aggregation/mth) was calculated after the two week time point."}, "[4]": {"test": "Differential Scanning Calorimetry (DSC) analysis", "type": "physicochemical", "conditions": "1 g/L antibody in 10 mM histidine, pH 6.0"}, "[5]": {"conditions": "3 mg/kg po daily for 14 days from disease onset"}, "[6]": {"conditions": "means ± SEM, 3.19.3 10 mg/kg i.p every 3 days, hIgG i.p, Prednisolone 3 mg/kg p.o daily, 14 days from disease onset"}},
  "note": "Entries after “also recorded” stand apart in the source; their conditions may differ. Where two headings read alike, the source gives them in different places. Marks after values point to notes of the source that are not given here.",
  "data": [
    {"molecule": "O=c1[nH]cc(F)c(=O)[nH]1", "note": "[5-flurouracil, 5-Flurouracil]", "values": [
      {"measurement": "% tumor growth inhibition", "setting": "LoVo xenograft tumors", "result": 62, "unit": "%"},
      {"measurement": "% tumor growth inhibition", "setting": "LoVo xenograft tumors; listed as 5 FU", "result": 62, "unit": "%"}
    ]},
    {"molecule": "C[C@]12C=CC(=O)C=C1CC[C@@H]1[C@@H]2[C@@H](O)C[C@@]2(C)[C@H]1CC[C@]2(O)C(=O)CO", "note": "[Prednisolone]", "values": [
      {"measurement": "% inhibition (AUC of Clinical Score)", "setting": "[1]; [5]", "result": 78, "unit": "% +/− 7%*"},
      {"measurement": "AUC of Clinical Score", "setting": "[1]; [5]", "result": "41 +/− 08"},
      {"measurement": "CD31+ microvessel density in synovium (in words)", "setting": "[1]; 3.19.3 at 1 and 10 mg/kg, prednisolone 3 mg/kg", "result": "significant reduction in microvessel density; also recorded: significant reduction in the presence of microvessels"},
      {"measurement": "incidence and severity of all measures (in words)", "setting": "[1]; Prednisolone 3 mg/kg p.o.", "result": "marked reduction in the incidence and severity of all measures"},
      {"measurement": "histopathological evaluation of arthropathy lesions (in words)", "setting": "[2]; 3.19.3 10 mg/kg, Human IgG isotype control, Prednisolone 3 mg/kg", "result": "marked reduction in the incidence and severity of all arthropathy lesions"},
      {"measurement": "% Inhibition (of AUC of clinical disease progression)", "setting": "[2]; [6]", "result": "76.1% ± 9.6%"},
      {"measurement": "Area Under Curve (AUC) of clinical disease progression", "setting": "[2]; [6]", "result": "24.5 ± 9.6"}
    ]},
    {"molecule": "B1", "values": [
      {"measurement": "% Agg/mth @ 25° C.", "setting": "[3]", "result": 0.21, "unit": "% Agg/mth"},
      {"measurement": "% Agg/mth @ 40° C.", "setting": "[3]", "result": 0.21, "unit": "% Agg/mth"},
      {"measurement": "melting temperature", "setting": "[4]", "result": "about 76 °C"}
    ]},
    {"molecule": "B2", "values": [
      {"measurement": "% Agg/mth @ 25° C.", "setting": "[3]", "result": 0.61, "unit": "% Agg/mth"},
      {"measurement": "% Agg/mth @ 40° C.", "setting": "[3]", "result": 0.82, "unit": "% Agg/mth"},
      {"measurement": "melting temperature", "setting": "[4]", "result": "about 76 °C"},
      {"measurement": "behaviour after melting in DSC (in words)", "setting": "[4]; two independent trials", "result": "subsequently falls out of solution"}
    ]}
  ]
}
